For assay [1], the system named is HepG2. Briefly: Inhibition of liver injury in 40% FBS-induced steatosis human HepG2 cells model assessed as decrease in AST level at 0.2 to 5 uM incubated with compound for 24 hrs followed by replacement with steatosis inducing DMEM with 40% FBS medium. Format: functional, cell-based. To be noted: dose 0.2-5 µM.
In assay [2] the test system is HepG2. Briefly: Recovery of energy production in 40% FBS-induced steatosis human HepG2 cells model assessed as upregulation of mitochondrial ATP production incubated in steatosis inducing DMEM with 40% FBS medium for 24 hrs followed by compound treatment by luciferase based assay. Format: functional, cell-based. The settings on record: Mitochondria, dose 0.2-5 µM.

The subject of assay [3] is HepG2. Briefly: Induction of mitochondrial biogenesis in human HepG2 cells assessed as mitochondrial COX1 protein expression incubated for 24 hrs in presence of SIRT1 inhibitor, EX527 by western blot analysis. Type of assay: functional, cell-based.
For assay [4], the system named is HepG2. Briefly: Induction of mitochondrial biogenesis in human HepG2 cells assessed as mitochondrial COX1 mRNA expression incubated for 24 hrs in presence of SIRT1 inhibitor, EX527 by qRT-PCR analysis. Type of assay: functional, cell-based.
Assay [5] has as its system HepG2. Nature of the assay: Induction of mitochondrial biogenesis in human HepG2 cells assessed as mitochondrial ND6 protein expression incubated for 24 hrs in presence of SIRT1 inhibitor, EX527 by western blot analysis. Format: functional, cell-based. (In general: In western blotting, separated proteins are transferred to a membrane and probed.)
A further assay relates to Mitochondria. Nature of the assay: Inhibition of mitochondrial dysfunction in 40% FBS-induced steatosis human HepG2 cells model assessed as mitochondria with less swelling and organized mitochondrial cristae at 5 uM incubated for 24 hrs by transmission electron microscopy. Type of assay: functional.
In assay [6] the test system is HepG2. Briefly: Induction of mitochondrial biogenesis in human HepG2 cells assessed as NRF1 mRNA expression incubated for 24 hrs in presence of SIRT1 inhibitor, EX527 by qRT-PCR analysis. Format: functional, cell-based.
The subject of assay [7] is HepG2. Nature of the assay: Recovery of mitochondrial biogenesis in 40% FBS-induced steatosis human HepG2 cells model assessed as increase in TFAM protein expression incubated for 24 hrs by western blot analysis. The settings on record: dose 0.2-5 µM. Format: functional, cell-based.
The test system of assay [8] is HepG2. Briefly: Recovery of mitochondrial biogenesis in 40% FBS-induced steatosis human HepG2 cells model assessed as increase in NRF1 protein expression incubated for 24 hrs by western blot analysis. The settings on record: dose 0.2-5 µM. Format: functional, cell-based.
The subject of assay [9] is Rattus norvegicus. Nature of the assay: Hepatoprotective activity against high fat diet-fed NAFLD Sprague-Dawley rat model assessed as decrease in serum AST level at 12.3 to 61.4 mg/kg, IG administered via gavage for 4 weeks. Type of assay: functional, organism-based. The settings on record: dose 12.3-61.4 mg/kg.
The test system of assay [10] is HepG2. Nature of the assay: Inhibition of liver injury in 40% FBS-induced steatosis human HepG2 cells model assessed as increase in liver protection index by measuring increase in GSH level at 0.2 to 5 uM incubated in steatosis inducing DMEM with 40% FBS medium for 24 hrs followed by compound treatment. To be noted: dose 0.2-5 µM. Type of assay: functional, cell-based.

Assay [11] has as its system HepG2. Nature of the assay: Inhibition of lipid toxicity in 40% FBS-induced steatosis human HepG2 cells model assessed as decrease in lipid accumulation at 0.2 to 5 uM incubated with compound for 24 hrs followed by replacement with steatosis inducing DMEM with 40% FBS medium by Oil red O staining based analysis. Format: functional, cell-based. To be noted: dose 0.2-5 µM.

Assay [12] concerns HepG2. Briefly: Induction of mitochondrial biogenesis in human HepG2 cells assessed as mitochondrial ND6 mRNA expression incubated for 24 hrs in presence of SIRT1 inhibitor, EX527 by qRT-PCR analysis. Format: functional, cell-based.
Assay [13] concerns HepG2. Nature of the assay: Recovery of mitochondrial biogenesis in 40% FBS-induced steatosis human HepG2 cells model assessed as increase in mitochondrial COX1 mRNA expression incubated for 24 hrs by qRT-PCR analysis. Type of assay: functional, cell-based. The settings on record: dose 0.2-5 µM. A general note: In qPCR the cycle at which signal appears reflects the starting amount.

Assay [14] deals with EA.hy 926. Briefly: Cytoprotective activity against H2O2-induced toxicity in human EA.hy 926 cells assessed as protective rate at 10 uM pretreated with compound for 4 hrs followed by incubation with H2O2 for 2 hrs by absorbance based analysis. Format: functional. The settings on record: time 6 hrs.
For assay [15], the system named is Rattus norvegicus. Briefly: Hepatoprotective activity against high fat diet-fed NAFLD Sprague-Dawley rat model assessed as decrease in serum LDH level administered intragastrically via gavage for 4 weeks. Type of assay: functional, organism-based. To be noted: dose 12.3-61.4 mg/kg, route ig.
The target in assay [16] is T1, Peroxisome proliferator-activated receptor gamma coactivator 1-alpha (Homo sapiens) (UniProt Q9UBK2).
T1 sequence (whole entry): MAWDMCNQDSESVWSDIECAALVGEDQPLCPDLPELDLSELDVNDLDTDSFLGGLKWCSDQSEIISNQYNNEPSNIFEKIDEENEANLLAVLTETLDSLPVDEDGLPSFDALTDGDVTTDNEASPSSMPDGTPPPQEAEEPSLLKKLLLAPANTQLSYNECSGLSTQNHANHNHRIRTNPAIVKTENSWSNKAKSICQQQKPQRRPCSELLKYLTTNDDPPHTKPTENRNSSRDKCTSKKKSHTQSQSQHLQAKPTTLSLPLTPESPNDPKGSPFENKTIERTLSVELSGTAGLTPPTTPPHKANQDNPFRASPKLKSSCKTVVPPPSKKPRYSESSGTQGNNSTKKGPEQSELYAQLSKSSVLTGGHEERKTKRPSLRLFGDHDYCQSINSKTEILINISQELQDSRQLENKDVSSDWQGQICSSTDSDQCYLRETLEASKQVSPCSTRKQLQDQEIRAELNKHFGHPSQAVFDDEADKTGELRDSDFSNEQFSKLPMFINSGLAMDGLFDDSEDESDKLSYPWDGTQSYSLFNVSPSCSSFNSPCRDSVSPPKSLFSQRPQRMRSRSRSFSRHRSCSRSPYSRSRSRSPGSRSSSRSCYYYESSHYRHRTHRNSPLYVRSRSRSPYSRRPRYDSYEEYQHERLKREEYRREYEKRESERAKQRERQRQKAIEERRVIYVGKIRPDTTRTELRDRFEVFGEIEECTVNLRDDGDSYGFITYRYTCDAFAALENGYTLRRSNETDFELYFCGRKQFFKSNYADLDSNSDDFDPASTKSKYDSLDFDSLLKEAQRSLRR
Briefly: Binding affinity to PGC1alpha in human HepG2 cells assessed as increase in thermal stability of protein pretreated with compound for 30 mins followed by incubation at 50 degC for 3 mins by CETSA-WB analysis. Type of assay: cell-based. The settings on record: filed as activator, dose 80-320 µM, time 33.0 min.

The test system of assay [17] is EA.hy 926. Nature of the assay: Cytoprotective activity against H2O2-induced toxicity in human EA.hy 926 cells assessed as protective rate pretreated with compound for 4 hrs followed by incubation with H2O2 for 2 hrs by absorbance based analysis. Format: functional, cell-based.

The source made the active and inactive calls. No cut-off for these calls is given here.

Usually EC50 stands for the concentration giving half of the maximal effect. For the molecule `CC(C)(C)c1ccc(C(=O)c2ccc(O)c(O)c2)cc1`, the inhibition result with HepG2 [1], in the assay with Mitochondria, with HepG2 [10] and in the assay with HepG2 [11] was “Active” in each case. The Activity result is “Dose-Dependent Effect” in the assay on HepG2 [2]; “Dose-Dependent Effect” with HepG2 [7]; “Dose-Dependent Effect” in the assay on HepG2 [8]; “Dose-Dependent Effect” in the assay with HepG2 [13]; 87.46% in the assay with EA.hy 926 [14]; “Dose-Dependent Effect” in [16]. Moreover, the result in the assay on HepG2 [3], with HepG2 [4], with HepG2 [5], with HepG2 [6] and with HepG2 [12] was inactive. Further, the result in the assay on Rattus norvegicus [9] and with Rattus norvegicus [15] was Active. Moreover, the 50% effective concentration (EC50) in the assay with EA.hy 926 [17] is 72.3 nM.

Source of the values: ChEMBL document CHEMBL5537110, “SIRT1-dependent mitochondrial biogenesis supports therapeutic effects of 4-butyl-polyhydroxybenzophenone compounds against NAFLD” (Eur J Med Chem, 2023).
